{"source": "paper PMC12214830", "about": "“The human RIF1-Long isoform interacts with BRCA1 to promote recombinational fork repair under DNA replication stress” (Nature Communications, 2025)", "format_in_all_cases": "cell-based, human", "key": {"RAD51 foci": {"tested_on": "RAD51 foci", "assay": "RAD51 foci formation, HeLa cells", "conditions": "24 h HU 4 mM", "method": "Cells were grown on glass coverslips and treated as desired. Cells were then permeabilized with 0.5% TritonX-100 in PBS for 7 min on ice, and fixed with 4% w/v formaldehyde solution (Sigma HT5012) for 10 min at room temperature (RT). After fixation, coverslips were blocked with 3% BSA in PBS (RT, 1 h), incubated with primary antibodies (RT, 2 h), washed with PBS three times and incubated with secondary antibodies (RT, 1 h). […] Fluorescence signal intensities within each nucleus were analysed by CellProfiler software with custom-made pipelines. […]\nFor proximity ligation assays and immunofluorescence signal intensity measurements, when comparing between two samples, statistical significance of differences was calculated by Mann-Whitney test for non-parametric distributions using GraphPad Prism software (v.9). When comparing among three or more samples, p values were calculated by Kruskal-Wallis test for non-parametric distributions with Dunn’s multiple comparisons using GraphPad Prism software (v.9). For RIF1 foci formation analysis (Fig. 6B), p values were calculated by two-tailed Student’s t test. For nuclear BRCA1 intensity fold change analyses (Fig. 6C, D), p values were calculated by two-tailed one-sample t test using GraphPad Prism software (v.9). For RAD51 foci formation analyses (Fig. 7B, E and Supplementary Fig. 7B), p values were calculated by chi-square test. […]"}, "[1]": {"tested_on": "RIF1-BRCA1 proximity in HeLa cells", "assay": "RIF1-BRCA1 proximity ligation assay, HeLa cells", "method": "Proximity ligation assays were performed using the Duolink In Situ PLA Fluorescence Protocol (Sigma-Aldrich, DUO92101) following the manufacturer’s instruction. Cells were grown on glass coverslips and treated as indicated for specific experiments. Cells were then permeabilized with 0.5% TritonX-100 in PBS for 10 min on ice, and fixed with 3% formaldehyde, 2% sucrose in PBS for 10 min at room temperature (RT). After fixation, coverslips were blocked in 3% BSA in PBS for 1 h at RT and incubated with primary antibodies (anti-RIF1, Bethel laboratories A300-568A, 1:1000 dilution; anti-BRCA1, Santa Cruz Biotechnologies, sc-6954, 1:200 dilution), for 1 h at RT in a humidity chamber. Primary antibodies were then washed off with PLA washing buffer A supplied in the Duolink In Situ PLA kit. Coverslips were next incubated sequentially with PLA Probes (1 h at 37 °C), ligation solution (30 min at 37 °C) and amplification solution (100 min at 37 °C), with washes by washing buffer A in between each step. At the end of incubation, coverslips were washed with washing buffer B supplied in the Duolink In Situ PLA kit. Coverslips were then mounted on glass slides with PLA Mounting medium with DAPI. Images were captured by fluorescence microscopy (Zeiss Axio Imager). PLA foci number in each nucleus were analysed by CellProfiler Software[74] with a custom-made pipeline.\n(§1) For proximity ligation assays and immunofluorescence signal intensity measurements, when comparing between two samples, statistical significance of differences was calculated by Mann-Whitney test for non-parametric distributions using GraphPad Prism software (v.9). When comparing among three or more samples, p values were calculated by Kruskal-Wallis test for non-parametric distributions with Dunn’s multiple comparisons using GraphPad Prism software (v.9). For RIF1 foci formation analysis (Fig. 6B), p values were calculated by two-tailed Student’s t test. For nuclear BRCA1 intensity fold change analyses (Fig. 6C, D), p values were calculated by two-tailed one-sample t test using GraphPad Prism software (v.9). For RAD51 foci formation analyses (Fig. 7B, E and Supplementary Fig. 7B), p values were calculated by chi-square test. For HR Reporter assay analysis (Fig. 7G and Supplementary Fig. 7L), p values were calculated by two-tailed paired Student’s t test. For micronuclei frequency analysis (Fig. 7H), p values were calculated by one-tailed paired Student’s t test. All Student’s t tests were performed with Excel T.TEST function. Chi-square tests were performed with the online Chi-square test calculator at https://www.socscistatistics.com/tests/chisquare2/default2.aspx. Sample number n for all box-and-whisker plots and dot plots are listed in Supplementary Data 1."}, "ssDNA": {"tested_on": "ssDNA", "assay": "native IdU immunofluorescence (ssDNA), RPE-1 cells", "conditions": "HU 4 mM 24 h", "method": "For detection of iododeoxyuridine (IdU) by immunofluorescence, cells were grown in the presence of 10 µM IdU for 72 h (with Morpholinos added at 24 h and HU added at 48 h). Cells were then permeabilized with 0.5% TritonX-100 in PBS for 7 min on ice, fixed with 4% w/v formaldehyde solution for 15 min at RT, and treated again with 0.5% TritonX-100 in PBS for 10 min on ice. Coverslips were immunostained as described above."}, "HCT116 cells": {"tested_on": "HCT116 cells", "assay": "colony formation (clonogenic survival) assay, HCT116 cells", "method": "For HCT116-derived cells, cells were plated in 6-well plates at 250 cells/well, in triplicate for each drug concentration. Cells were incubated with drugs for 24 h, after which drug-containing medium was replaced with drug-free medium. Seven days later colony counting was performed using a Nikon Eclipse TS100 microscope. For the IR sensitivity test, cells were plated following the same procedure, then irradiated at desired doses and incubated for 7 days before colony counting. Clusters with more than 20 cells were counted as colonies. Mean and standard error of each triplicate was calculated."}, "[2]": {"tested_on": "GFP-RIF1-L / GFP-RIF1-L-pp1bs foci", "assay": "GFP-RIF1 foci formation, HeLa cells", "conditions": "HU 4 mM 24 h", "method": "Cells were grown on glass coverslips and treated as desired. Cells were then permeabilized with 0.5% TritonX-100 in PBS for 7 min on ice, and fixed with 4% w/v formaldehyde solution (Sigma HT5012) for 10 min at room temperature (RT). After fixation, coverslips were blocked with 3% BSA in PBS (RT, 1 h), incubated with primary antibodies (RT, 2 h), washed with PBS three times and incubated with secondary antibodies (RT, 1 h). Primary antibodies used for immunofluorescence include anti-γH2A.X (20E3) (Cell Signalling Technology, 9718. 1:500); anti-RPA32/RPA2 (9H8) (Abcam, ab2175. 1:200); anti-RAD51 (H92) (Santa Cruz Biotechnology, sc-8349. 1:100); anti-BrdU (B44) (BD Biosciences, 347580. 1:100); Coverslips were then mounted on glass slides with mounting medium with DAPI. Images were captured by either standard (Zeiss Axio Imager) or confocal (Zeiss LSM-880) microscopy. Fluorescence signal intensities within each nucleus were analysed by CellProfiler software with custom-made pipelines. Co-localisation analyses were performed with custom-made CellProfiler pipelines. Briefly, nuclei were identified and used to create masks. […]"}, "micronuclei": {"tested_on": "micronuclei", "assay": "micronuclei frequency, HeLa cells", "conditions": "HeLa RIF1-L vs RIF1-S or RIF1-L-APKF; HU 4 mM 24 h", "method": "as §1"}, "[3]": {"conditions": "Fig 5G/H, HeLa RIF1 KO + RIF1-L-pp1bs, HU 4 mM 24 h"}, "[4]": {"conditions": "Fig 5G/H, HeLa RIF1 KO + RIF1-L, HU 4 mM 24 h"}, "[5]": {"conditions": "Fig 5G/H, HeLa RIF1 KO, HU 4 mM 24 h"}, "[6]": {"conditions": "Fig S3F, HeLa RIF1-L-APKF, HU 4mM 24hr"}, "[7]": {"conditions": "Fig S3F, HeLa RIF1-L, HU 4mM 24hr"}, "[8]": {"conditions": "Fig S3F, HeLa RIF1-S, HU 4mM 24hr"}, "[9]": {"conditions": "Fig S4H, HeLa +RIF1-L, HU 4mM 24hr"}, "[10]": {"conditions": "Fig S4I, HeLa +RIF1-L, HU 4mM 24hr"}, "[11]": {"conditions": "Fig S5G (repeat), HeLa RIF1 WT (RIF1-L), HU 4mM 24hr"}, "[12]": {"conditions": "Fig S5G (repeat), HeLa RIF1 pp1bs, HU 4mM 24hr"}, "[13]": {"conditions": "Fig S5I, HeLa RIF1-L-pp1bs-APKF, HU 4mM 24hr"}, "[14]": {"conditions": "Fig S5I, HeLa RIF1-L-pp1bs, HU 4mM 24hr"}}}
{"molecule": "NC(=O)NO", "note": "[HU, hydroxyurea]", "values": [{"measurement": "proportion of cells containing RAD51 foci", "setting": "RAD51 foci", "value": "greatly increased"}, {"measurement": "RIF1-BRCA1 PLA foci per nucleus, mean", "setting": "[1]; [3]", "value": 45.51}, {"measurement": "RIF1-BRCA1 PLA foci per nucleus, median", "setting": "[1]; [3]", "value": 42}, {"measurement": "RIF1-BRCA1 PLA foci per nucleus, mean", "setting": "[1]; [4]", "value": 27.55}, {"measurement": "RIF1-BRCA1 PLA foci per nucleus, median", "setting": "[1]; [4]", "value": 21}, {"measurement": "RIF1-BRCA1 PLA foci per nucleus, mean", "setting": "[1]; [5]", "value": 1.394}, {"measurement": "RIF1-BRCA1 PLA foci per nucleus, median", "setting": "[1]; [5]", "value": 1}, {"measurement": "RIF1-BRCA1 PLA foci per nucleus, mean", "setting": "[1]; [6]", "value": 14.65}, {"measurement": "RIF1-BRCA1 PLA foci per nucleus, median", "setting": "[1]; [6]", "value": 12}, {"measurement": "RIF1-BRCA1 PLA foci per nucleus, mean", "setting": "[1]; [7]", "value": 18.04}, {"measurement": "RIF1-BRCA1 PLA foci per nucleus, median", "setting": "[1]; [7]", "value": 15}, {"measurement": "RIF1-BRCA1 PLA foci per nucleus, mean", "setting": "[1]; [8]", "value": 13.85}, {"measurement": "RIF1-BRCA1 PLA foci per nucleus, median", "setting": "[1]; [8]", "value": 12}, {"measurement": "RIF1-BRCA1 PLA foci per nucleus, mean", "setting": "[1]; [9]", "value": 21.43}, {"measurement": "RIF1-BRCA1 PLA foci per nucleus, median", "setting": "[1]; [9]", "value": 20}, {"measurement": "RIF1-BRCA1 PLA foci per nucleus, mean", "setting": "[1]; [10]", "value": 18.83}, {"measurement": "RIF1-BRCA1 PLA foci per nucleus, median", "setting": "[1]; [10]", "value": "2, 17, 17"}, {"measurement": "RIF1-BRCA1 PLA foci per nucleus, mean", "setting": "[1]; [11]", "value": 40.69}, {"measurement": "RIF1-BRCA1 PLA foci per nucleus, median", "setting": "[1]; [11]", "value": 37}, {"measurement": "RIF1-BRCA1 PLA foci per nucleus, mean", "setting": "[1]; [12]", "value": 62.09}, {"measurement": "RIF1-BRCA1 PLA foci per nucleus, median", "setting": "[1]; [12]", "value": 62}, {"measurement": "RIF1-BRCA1 PLA foci per nucleus, mean", "setting": "[1]; [13]", "value": 46.58}, {"measurement": "RIF1-BRCA1 PLA foci per nucleus, median", "setting": "[1]; [13]", "value": 42}, {"measurement": "RIF1-BRCA1 PLA foci per nucleus, mean", "setting": "[1]; [14]", "value": 53.47}, {"measurement": "RIF1-BRCA1 PLA foci per nucleus, median", "setting": "[1]; [14]", "value": 53}, {"measurement": "native IdU staining", "setting": "ssDNA", "value": "both increased upon HU treatment"}, {"measurement": "colony survival, RIF1-L cells", "setting": "HCT116 cells; HCT116 expressing only RIF1-L, versus RIF1-WT", "value": "RIF1-L conferred resistance comparable to RIF1-WT"}, {"measurement": "colony survival, RIF1-S cells", "setting": "HCT116 cells; HCT116 expressing only RIF1-S, versus RIF1-KO", "value": "exhibited hypersensitivity to these drugs similar to RIF1-KO cells"}, {"measurement": "HU-treated cells with distinct GFP-RIF1-L-pp1bs foci", "setting": "[2]; HeLa GFP-RIF1-L-pp1bs", "value": "~ 70%"}, {"measurement": "HU-treated cells with clear GFP-RIF1-L foci", "setting": "[2]; HeLa GFP-RIF1-L", "value": "~ 10%"}, {"measurement": "frequency of micronuclei following HU", "setting": "micronuclei", "value": "RIF1-L cells exhibited a lower frequency of micronuclei following HU treatment than RIF1-S or RIF1-L-APKF cells"}]}
